Measured values reported in the supplement of paper PMC10290057.
Where a name gives a salt, the structure may show the parent alone.

Experiments:
HCT116 [1] = assay: AC50 cell viability (CellTiter-Glo); higher = less potent; details: 48 h
HCT116 [2] = assay: efficacy (fitted maximal change in viability relative to DMSO control); higher = less cytotoxic (negative = loss of viability); details: 48 h
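Wherever AC50 cell viability (CellTiter-Glo) is given: HCT116 colorectal carcinoma cells screened at five concentrations per compound, luminescent viability scaled between DMSO wells and empty wells on each plate, curves fitted per compound.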
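Wherever efficacy (fitted maximal change in viability relative to DMSO control) is given: Luminescence-based viability readout, five doses per compound, normalized against on-plate DMSO and empty-well controls, followed by dose-response curve fitting for every drug.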

Row | SMILES | AC50 cell viability (HCT116 [1]) | efficacy (HCT116 [2])
1 | CC1(N2CCC(n3c([C@@H]4CCCNC4)nc4ccccc43)CC2)CCCCCCC1 [MCOPPB] | 9.34 µM | -82.3%
2 | CC(C)(C)c1[nH]cnc1/C=c1\[nH]c(=O)/c(=C/c2ccccc2)[nH]c1=O [Plinabulin] | 0.0525 µM | -58.4%
3 | Cc1nn(Cc2ccccc2Cl)c(C)c1CN(C)CC(O)COc1ccc(Cl)cc1 (stereo not drawn) | 18.6 µM | -92.3%
4 | NC/1=N/C(=O)N(/C=N1)[C@@H]2O[C@H](CO)[C@@H](O)[C@H]2O [5-Azacitidine] | 5.9 µM | -82.6%
5 | CNC(=O)c1ccccc1Nc1nc(Nc2ccc(N3CCOCC3)cc2OC)ncc1Cl [NVP-TAE226] | 0.833 µM | -77.8%
6 | Fc1ccc(CNc2ncnc3ccc(F)cc23)cc1 [Spautin-1] | 1.48 µM | -34.2%
7 | CCCOc1ccc2[nH]c(NC(=O)OC)nc2c1 [Oxibendazole] | 0.295 µM | -64.9%
8 | CCc1ccc(N(CC(C)C)[S+](=O)([O-])c2ccc(OCC3CCOCC3)c(CO)c2)cc1 | 23.5 µM | -83.5%
9 | Cc1ccc(-c2ccc3ncc4c(c3n2)n(C2CCN(C(=O)[C@H](C)O)CC2)c(=O)n4C)cn1 | 0.166 µM | -86.9%
10 | Fc1ccc(C(OCCN2CCN(CCCc3ccccc3)CC2)c2ccc(F)cc2)cc1 [Vanoxeamine] | 11.8 µM | -96.8%
11 | C[N]1C=C(C2=CC=CC=C12)\C3=C(\C(=O)NC3=O)C4=C[N](C5CCN(CC5)CC6=NC=CC=C6)C7=C4C=CC=C7 [Enzastaurin] | 14.8 µM | -56.4%
12 | COc1cc(N2CCC(N3CCN(C)CC3)CC2)ccc1Nc1ncnc(Nc2ccccc2[S+](=O)([O-])C(C)C)n1 [ASP-3026] | 4.68 µM | -82.2%
13 | O=C(Nc1ccccc1-c1cn2c(CN3CCNCC3)csc2n1)c1cnc2ccccc2n1 [SRT-1720] | 7.42 µM | -83.6%
14 | C[C@H]1CCC/C=C/C2C[C@H](O)C[C@H]2[C@H](O)/C=C/C(=O)O1 (stereo partly drawn) [Cyanein] | 0.235 µM | -91.1%
15 | C=CCNC1=C2C[C@@H](C)C[C@H](OC)[C@H](O)[C@@H](C)/C=C(\C)[C@H](OC(N)=O)[C@@H](OC)/C=C\C=C(/C)C(=O)NC(=CC1=O)C2=O [Tanespimycin] | 3.72 µM | -65.7%
16 | C=CC(=O)Nc1ccc2ncnc(Nc3ccc(OCc4cccc(F)c4)c(Cl)c3)c2c1 [AST-1306] | 11.8 µM | -98.3%
17 | COc1cc2ncnc(-n3nc(-c4ccccn4)nc3N)c2cc1OC | 4.68 µM | -47.9%
18 | CCNCc1nc2c(N)nc3ccccc3c2n1CC(C)(C)O [Gardiquimod] | 16.6 µM | -62%
19 | COc1ccc([S+](=O)([O-])N(CCO)c2ccccc2CN(C)C/C=C/c2ccc(Cl)cc2)cc1 [KN-93] | 14.8 µM | -93.9%
20 | O=C(c1ccc(OCCN2CCCCC2)cc1)c1c(-c2ccc(O)cc2)sc2cc(O)ccc12 [Raloxifene hydrochloride] | 20.9 µM | -94.4%
21 | N#Cc1ccc(Cn2cncc2CN2CCN(c3cccc(Cl)c3)C(=O)C2)cc1 | 0.332 µM | -46%
22 | CO[C@H]1CCC(O[C@H]2C[C@H]([C@]3(C)CC[C@]4(C[C@H](O)[C@@H](C)[C@@H]([C@@H](C)/C=C(\C)C(=O)[C@H](C)C[C@H](C)C(=O)[O-])O4)O3)O[C@]3(O[C@@H]([C@H]4O[C@@](O)(CO)[C@H](C)C[C@@H]4C)C[C@@H]3C)[C@@H]2C)O[C@@H]1C (stereo partly drawn) [Nanchangmycin] | 2.95 µM | -101%
23 | CNC(=O)Cn1cc(-c2ccc3c(c2)C(F)CC32NC(=O)N(CC(=O)N(Cc3ccc(F)cc3)C(C)C(F)(F)F)C2=O)cn1 (stereo not drawn) | 0.934 µM | -51.2%
24 | Cc1ccc(N[S+](=O)([O-])c2cccc(C#N)c2)c2[nH]cc(C#N)c12 [E-7820] | 0.417 µM | -53.2%
25 | C/N=c1\ncc2cc(-c3cc(N/C(O)=N/CCC(C)(C)C)c(F)cc3C)c(C)nc2[nH]1 | 2.63 µM | -82.1%
26 | O=C(CCCCCCC(=O)Nc1cccnc1)NO [Pyroxamide] | 2.95 µM | -87.9%
27 | N#Cc1ccc(-c2c(-c3nnc[nH]3)sc(N3CCOCC3)c2C#N)c(F)c1 | 1.86 µM | -83.5%
28 | COc1cc(OC2CCN(C)CC2)ccc1Nc1ncc2c(n1)n(C1CCCC1)c(=O)n2C [AZ-3146] | 5.9 µM | -102%
29 | CSc1ccc(C(=O)/C=C/c2cc(C)c(OC(C)(C)C(=O)O)c(C)c2)cc1 [Elafibranor] | 30.3 µM | -75.5%
